Laboratory results from ChEMBL document CHEMBL3885861, “Open TG-GATES”.

Species on record: Rattus norvegicus
Assay: Open TG-GATES - Regimen: Single
Type: toxicity, organism-based, Sprague-Dawley
Parameters: regimen Single, gender Male, age 6 weeks
Settings: in vivo, po, 0 mg/kg, route gavage, dose level Control; for APTT / Bas / Eos / Fbg / Hb / Ht / Lym / MCH / MCHC / MCV / Mono / Neu / PT / Plat / RBC / Ret / WBC: tissue Blood; for KIDNEY_L / KIDNEY_R / KIDNEY_TOTAL: tissue Kidney; for LIVER: tissue Liver; for A/G / ALP / ALT / AST / BUN / CRE / Ca / Cl / DBIL / GLC / IP / K / LDH / Na / PL / RALB / TBIL / TC / TG / TP / gamma-GTP: tissue Plasma

## CC(C)(S)[C@@H](N)C(=O)O [PENICILLAMINE]
3 h
  TERMINAL_BW: 202 g
  APTT: 15 s
  Bas: 0%
  Eos: 1%
  Fbg: 302 mg/dL
  Hb: 13.8 g/dL
  Ht: 42.5%
  Lym: 79.4%
  MCH: 21.6 pg
  MCHC: 32.5%
  MCV: 66.4 fL
  Mono: 2.8%
  Neu: 15.8%
  PT: 14.4 s
  Plat: 123.9 x10_4/uL
  RBC: 639.6 x10_4/ul
  Ret: 9.1%
  WBC: 90 x10_2/uL
  KIDNEY_L: 0.9 g
  KIDNEY_R: 0.9 g
  KIDNEY_TOTAL: 1.7 g
  LIVER: 9 g
  A/G: 0.9
  ALP: 1505 IU/L
  ALT: 42.2 IU/L
  AST: 75.2 IU/L
  BUN: 10 mg/dL
  CRE: 0.2 mg/dL
  Ca: 11.1 mg/dL
  Cl: 106.2 meq/L
  DBIL: 0.014 mg/dL
  GLC: 178.8 mg/dL
  IP: 8.4 mg/dL
  K: 4.4 meq/L
  LDH: 74.6 IU/L
  Na: 141.8 meq/L
  PL: 137.4 mg/dL
  RALB: 2.6 g/dL
  TBIL: 0.032 mg/dL
  TC: 71.4 mg/dL
  TG: 72.6 mg/dL
  TP: 5.3 g/dL
  gamma-GTP: 1.2 IU/L
6 h
  TERMINAL_BW: 201.2 g
  APTT: 16.2 s
  Bas: 0%
  Eos: 1%
  Fbg: 301.2 mg/dL
  Hb: 13.3 g/dL
  Ht: 41.1%
  Lym: 79.2%
  MCH: 20.6 pg
  MCHC: 32.4%
  MCV: 63.7 fL
  Mono: 2.6%
  Neu: 16.2%
  PT: 14.3 s
  Plat: 130.7 x10_4/uL
  RBC: 646.2 x10_4/ul
  Ret: 8.8%
  WBC: 87.2 x10_2/uL
  KIDNEY_L: 0.9 g
  KIDNEY_R: 0.9 g
  KIDNEY_TOTAL: 1.7 g
  LIVER: 8.5 g
  A/G: 0.9
  ALP: 1217 IU/L
  ALT: 34.4 IU/L
  AST: 70.6 IU/L
  BUN: 9.6 mg/dL
  CRE: 0.2 mg/dL
  Ca: 11 mg/dL
  Cl: 106 meq/L
  DBIL: 0.008 mg/dL
  GLC: 175.8 mg/dL
  IP: 8.9 mg/dL
  K: 4.3 meq/L
  LDH: 76 IU/L
  Na: 142.8 meq/L
  PL: 135 mg/dL
  RALB: 2.5 g/dL
  TBIL: 0.038 mg/dL
  TC: 75.8 mg/dL
  TG: 52.4 mg/dL
  TP: 5.3 g/dL
  gamma-GTP: 1 IU/L
